Assay results: US7468391B2, “Methods for treating retinoid responsive disorders using selective inhibitors of CYP26A and CYP26B” (Allergan, Inc., priority 2003, dated 2008)

How the values were obtained:
RAR β [1] = biological target: T1, RAR β (Homo sapiens, UniProt P10826); test: RAR β EC50/(efficacy); format: cell-based; conditions: for RAR β (EFFICACY): value in brackets of cell EC50/(EFFICACY)/Kd
T1 sequence (P10826 1-455): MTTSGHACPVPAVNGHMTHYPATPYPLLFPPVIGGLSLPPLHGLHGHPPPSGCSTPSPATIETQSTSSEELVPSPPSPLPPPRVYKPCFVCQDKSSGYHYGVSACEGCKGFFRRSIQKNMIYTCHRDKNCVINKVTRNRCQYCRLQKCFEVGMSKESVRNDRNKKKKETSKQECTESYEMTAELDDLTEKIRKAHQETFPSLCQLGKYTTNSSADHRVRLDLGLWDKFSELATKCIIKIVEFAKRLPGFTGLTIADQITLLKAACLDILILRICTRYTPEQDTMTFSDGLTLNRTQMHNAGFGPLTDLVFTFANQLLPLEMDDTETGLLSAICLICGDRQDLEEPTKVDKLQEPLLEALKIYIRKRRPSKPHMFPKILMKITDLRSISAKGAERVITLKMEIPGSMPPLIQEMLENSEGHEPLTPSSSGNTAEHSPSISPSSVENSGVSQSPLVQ

RAR γ [2] = biological target: T2, RAR γ (Homo sapiens, UniProt P13631); test: RAR γ EC50/(efficacy); format: cell-based; conditions: value in brackets of cell EC50/(EFFICACY)/Kd
T2 sequence (P13631 1-454): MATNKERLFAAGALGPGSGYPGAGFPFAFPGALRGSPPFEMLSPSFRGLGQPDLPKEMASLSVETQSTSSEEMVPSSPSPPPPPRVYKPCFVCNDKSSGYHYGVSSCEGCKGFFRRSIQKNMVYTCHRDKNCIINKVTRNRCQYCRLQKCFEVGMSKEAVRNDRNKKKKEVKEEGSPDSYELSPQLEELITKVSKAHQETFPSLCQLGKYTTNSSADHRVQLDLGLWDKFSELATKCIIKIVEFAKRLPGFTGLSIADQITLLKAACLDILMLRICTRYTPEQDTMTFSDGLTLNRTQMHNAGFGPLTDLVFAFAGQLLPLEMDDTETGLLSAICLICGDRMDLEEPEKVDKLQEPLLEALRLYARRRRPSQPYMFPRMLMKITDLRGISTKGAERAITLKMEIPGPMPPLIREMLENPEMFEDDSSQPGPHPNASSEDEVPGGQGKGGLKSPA

RAR γ [3] = biological target: T2, RAR γ; test: RAR γ Kd; format: binding; conditions: last item of cell EC50/(EFFICACY)/Kd
CYP26A (P450RAI-1) = biological target: T3, CYP26A (P450RAI-1) (Homo sapiens, UniProt O43174); test: Cell-based inhibition of RA metabolism in CYP26A stably transfected HeLa cells; conditions: stably transfected HeLa cells, [3H]-RA, 3 hours at 37° C.; read-out: P450RAI-1 Whole cell IC50
T3 construct: expressed in transfected cells; host or cells: HeLa
T3 sequence (O43174 1-497): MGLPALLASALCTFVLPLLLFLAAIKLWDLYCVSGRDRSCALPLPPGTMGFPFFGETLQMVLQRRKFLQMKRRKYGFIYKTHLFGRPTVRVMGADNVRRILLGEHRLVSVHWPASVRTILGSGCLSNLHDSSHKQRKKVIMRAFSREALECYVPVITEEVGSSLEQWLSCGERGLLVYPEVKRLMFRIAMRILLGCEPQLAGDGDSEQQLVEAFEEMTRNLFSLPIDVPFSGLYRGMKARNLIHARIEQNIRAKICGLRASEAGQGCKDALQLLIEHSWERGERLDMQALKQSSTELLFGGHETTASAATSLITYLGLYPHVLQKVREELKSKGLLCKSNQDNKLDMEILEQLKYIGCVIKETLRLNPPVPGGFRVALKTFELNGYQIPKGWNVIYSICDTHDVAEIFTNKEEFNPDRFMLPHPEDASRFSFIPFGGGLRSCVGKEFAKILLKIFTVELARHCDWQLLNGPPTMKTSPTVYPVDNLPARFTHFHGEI
Method in brief: (§1)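 Stably transfected HeLa cells (5×10^5/well) in MEM with 10% FBS and 0.05 μCi [3H]-RA, compounds at 10, 1 or 0.1 μM final, 3 h at 37° C. Retinoids extracted by modified Bligh-Dyer (methylene chloride); aqueous radioactivity counted; ID50 for 50% inhibition of RA metabolism derived from log-transformed data.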

CYP26B (P450RAI-2) = biological target: T4, CYP26B (P450RAI-2) (Homo sapiens, UniProt Q9NR63); test: Cell-based inhibition of RA metabolism in CYP26B stably transfected HeLa cells; conditions: stably transfected HeLa cells, [3H]-RA, 3 hours at 37° C.; read-out: P450RAI-2 Whole cell IC50
T4 construct: expressed in transfected cells; host or cells: HeLa
T4 sequence (Q9NR63 1-512): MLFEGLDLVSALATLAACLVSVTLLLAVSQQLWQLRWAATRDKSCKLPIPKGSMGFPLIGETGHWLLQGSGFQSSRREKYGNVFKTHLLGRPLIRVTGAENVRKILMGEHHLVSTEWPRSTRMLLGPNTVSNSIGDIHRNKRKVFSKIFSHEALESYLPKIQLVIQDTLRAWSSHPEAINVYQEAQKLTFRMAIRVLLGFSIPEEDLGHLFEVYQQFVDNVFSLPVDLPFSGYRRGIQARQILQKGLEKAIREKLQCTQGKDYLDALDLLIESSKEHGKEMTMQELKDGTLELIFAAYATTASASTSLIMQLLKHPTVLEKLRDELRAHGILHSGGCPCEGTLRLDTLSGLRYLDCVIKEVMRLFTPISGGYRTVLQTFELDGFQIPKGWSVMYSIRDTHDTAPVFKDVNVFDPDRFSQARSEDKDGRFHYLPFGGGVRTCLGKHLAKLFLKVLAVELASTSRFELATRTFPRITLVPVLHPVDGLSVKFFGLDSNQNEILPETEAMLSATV
Method in brief: as §1

RAR α = biological target: T5, RAR α (Homo sapiens, UniProt P10276); test: RAR α Kd; format: binding; conditions: last item of cell EC50/(EFFICACY)/Kd
T5 sequence (P10276 1-462): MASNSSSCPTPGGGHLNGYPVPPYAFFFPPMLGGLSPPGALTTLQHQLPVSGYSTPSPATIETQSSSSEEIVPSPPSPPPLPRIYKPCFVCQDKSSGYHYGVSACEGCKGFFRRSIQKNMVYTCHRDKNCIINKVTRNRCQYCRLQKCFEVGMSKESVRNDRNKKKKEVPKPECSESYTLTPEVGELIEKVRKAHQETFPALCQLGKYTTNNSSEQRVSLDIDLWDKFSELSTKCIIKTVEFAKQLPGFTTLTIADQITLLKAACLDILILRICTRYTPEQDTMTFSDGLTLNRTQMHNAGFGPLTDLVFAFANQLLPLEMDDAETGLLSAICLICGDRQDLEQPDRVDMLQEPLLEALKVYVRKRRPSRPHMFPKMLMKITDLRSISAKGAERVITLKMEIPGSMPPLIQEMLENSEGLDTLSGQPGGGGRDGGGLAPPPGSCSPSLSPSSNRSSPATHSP

RAR β [4] = biological target: T1, RAR β; test: RAR β Kd; format: binding; conditions: last item of cell EC50/(EFFICACY)/Kd

Row | SMILES | RAR β (EFFICACY) (RAR β [1]) | RAR γ (EFFICACY) (RAR γ [2]) | Kd (RAR γ [3]) | IC50 (CYP26A (P450RAI-1)) | IC50 (CYP26B (P450RAI-2)) | Kd (RAR α) | Kd (RAR β [4]) | EC50 (RAR β [1]; first item of cell EC50/(EFFICACY)/Kd)
1 | C/C(=C\c1ccc(C#Cc2cccc(CN(C)C3CC3)c2)cc1)C(=O)O [Compound 33, 3-(4-{3-[(Cyclopropyl-methyl-amino)-methyl]-phenylethynyl}-phenyl)-2-methyl-acrylic acid] | 30 | 10 | > 10 µM | > 10 µM | 1 µM | 3.25 µM |  | 
2 | CC(C)Oc1cc(C#Cc2ccc(CC(=O)O)cc2)cc2c1C(N(C)C1CC1)CCC2(C)C (stereo not drawn) [Compound 41, {4-[5-(Cyclopropyl-methyl-amino)-4-isopropoxy-8,8-dimethyl-5,6,7,8-tetrahydro-naphthalen-2-ylethynyl]-phenyl}-acetic acid] |  | 30 | > 10 µM | 0.016 µM | > 10 µM | > 10 µM | > 10 µM | 
3 | CCOC(=O)C1=CCC(C)(C)c2cc(C#Cc3ccc(CC(=O)O)cc3)c(C)cc21 [Compound 55, 6-(4-Carboxymethyl-phenylethynyl)-4,4,7-trimethyl-3,4-dihydro-naphthalene-1-carboxylic acid ethyl ester] | 35 | 30 | > 10 µM | 1.4 µM | > 10 µM | > 10 µM | > 10 µM | 
4 | CCOC(=O)C1=C(C)CC(C)(C)c2cc(C#Cc3ccc(CC(=O)O)c(F)c3)ccc21 [Compound 59, 6-(4-Carboxymethyl-3-fluoro-phenylethynyl)-2,4,4-trimethyl-3,4-dihydro-naphthalene-1-carboxylic acid ethyl ester] | 35 |  | > 10 µM | 1.2 µM | > 10 µM | > 10 µM | 2.86 µM | 
5 | CCOC(=O)C1CCC(C)(C)c2cc(C#Cc3ccc(CC(=O)O)cc3)c(C)cc21 (stereo not drawn) [Compound 57, 6-(4-Carboxymethyl-phenylethynyl)-4,4,7-trimethyl-1,2,3,4-tetrahydro-naphthalene-1-carboxylic acid ethyl ester] | 50 | 35 | 7.74 µM | 0.4 µM |  | 6.03 µM | 4.98 µM | 
6 | C=Cc1cc(C#Cc2ccc(CC(=O)O)cc2)cc2c1C(N(C)C1CC1)CCC2(C)C (stereo not drawn) [Compound 23, {4-[5-(Cyclopropyl-methyl-amino)-8,8-dimethyl-4-vinyl-5,6,7,8-tetrahydro-naphthalen-2-ylethynyl]-phenyl}-acetic acid] | 40 | 35 | > 10 µM | 0.008 µM | 0.5 µM | > 10 µM | > 10 µM | 
7 | C=Cc1cc(C#Cc2ccc(CC(=O)O)cc2)cc2c1C(=O)CCC2(C)C [Compound 22, [4-(8,8-Dimethyl-5-oxo-4-vinyl-5,6,7,8-tetrahydro-naphthalen-2-ylethynyl)-phenyl]-acetic acid] | 15 |  | > 10 µM | 0.007 µM | 0.2 µM | > 10 µM | > 10 µM | 
8 | CN(C1CC1)C1CCC(C)(C)c2cc(C#Cc3ccc(/C=C/C(=O)O)cc3)cc(C3CC3)c21 (stereo not drawn) [Compound 48, 3-{4-[4-Cyclopropyl-5-(cyclopropyl-methyl-amino)-8,8-dimethyl-5,6,7,8-tetrahydro-naphthalen-2-ylethynyl]-phenyl}-acrylic acid] | 40 | 25 |  | 0.7 µM |  |  |  | 
9 | CCOC(=O)c1cc(C#Cc2ccc(CC(=O)O)cc2)cc2c1C(N(C)C1CC1)CCC2(C)C (stereo not drawn) [Compound 24, 3-(4-Carboxymethyl-phenylethynyl)-8-(cyclopropyl-methyl-amino)-5,5-dimethyl-5,6,7,8-tetrahydro-naphthalene-1-carboxylic acid ethyl ester] | 30 |  | 7.75 µM | 0.035 µM | 5 µM | 8.57 µM | 7.19 µM | 
10 | CC(C(=O)O)c1ccc(C#Cc2ccc3c(c2)C(C)(C)CCC3N(C)C2CC2)cc1 (stereo not drawn) [Compound 51, 2-{4-[5-(Cyclopropyl-methyl-amino)-8,8-dimethyl-5,6,7,8-tetrahydro-naphthalen-2-ylethynyl]-phenyl}-propionic acid] | 5 |  | > 10 µM | 0.2 µM | > 10 µM | > 10 µM | > 10 µM | 
11 | C#Cc1cc(NC(=O)Nc2ccc(C(=O)O)c(F)c2)cc2c1OC(C)(C)CC2(C)C [Compound 63, 4-[3-(8-Ethynyl-2,2,4,4-tetramethyl-chroman-6-yl)-ureido]-2-fluoro-benzoic acid] | 37 |  | > 100 µM | > 10 µM | 0.68 µM | > 100 µM | 11 µM | 0.853 µM
12 | CC1(C)CC(C)(C)c2cc(C#Cc3ccc(CC(=O)O)c(F)c3)cc(O)c2O1 [Compound 10, [2-Fluoro-4-(8-hydroxy-2,2,4,4-tetramethyl-chroman-6-ylethynyl)-phenyl]-acetic acid] | 15 |  | > 10 µM | 0.07 µM | 0.7 µM | > 10 µM | > 10 µM | 
13 | COc1cc(C#CC2=CCC(/C=C(\C)C(=O)O)C=C2)cc2c1C(N(C)C1CC1)CCC2(C)C (stereo not drawn) [Compound 30, (E)-3-{4-[5-(Cyclopropyl-methyl-amino)-4-methoxy-8,8-dimethyl-5,6,7,8-tetrahydro-naphthalen-2-ylethynyl]-cyclohexa-2,4-dienyl}-2-methyl-acrylic acid] | 15 |  | > 10 µM | 0.18 µM | > 10 µM | > 10 µM | > 10 µM | 
